Reference: US20240336556A1, “R-KETAMINE SALTS AND METHODS OF USE THEREOF” (Perception Neuroscience, Inc., priority 2021, published 2024)
≈ marks a conversion by molar mass, not a printed value. Like-named read-outs stand apart in the source and are kept apart here.

Legend:
[1] = Precise solubility tests of R-ketamine fumarate salt Form A in aqueous media at adjusted pH (HPLC); conditions: for solubility: aqueous, equilibrated one day, HPLC
[2] = Dynamic vapor sorption (DVS) and classification of hygroscopicity; format: physicochemical; conditions: for reversibility of water sorption: under the test conditions; for solid form of the sample after DVS: PXRD or FT-Raman on solid recovered after the DVS test
Procedure: DVS measurements were performed with an SPS11-100n “Sorptions Prüfsystem” from ProUmid (formerly “Projekt Messtechnik”), August-Nagel-Str. 23, 89079 Ulm (Germany). About 5-20 mg of sample were put into an aluminum sample pan. Humidity change rates of […] were used. The applied measurement program is described as follows:
The sample was placed on an aluminum or platinum holder on top of a microbalance and allowed to equilibrate at 50% RH before starting the pre-defined humidity programs: • (1) 2 h at 50% RH • (2) 50→0% RH (5%/h); 5 h at 0% RH • (3) 0→95% RH (5%/h); 5 h at 95% RH • (4) 95→0% RH (5%/h); 5 h at 0% RH • (5) 0→95% RH (5%/h); 5 h at 95% RH • (6) 95→50% RH (5%/h); 2 h at 50% RH
The hygroscopicity was classified based on the mass gain at 85% RH relative to the initial mass as follows: deliquescent (sufficient water adsorbed to form a liquid), very hygroscopic (mass increase of ≥15%), hygroscopic (mass increase <15% but ≥2%), slightly hygroscopic (mass increase <2% but ≥0.2%), or non-hygroscopic (mass increase <0.2%).

[3] = HPLC precise solubility determination of R-ketamine salts in water at 25° C., with pH of the saturated solution; conditions: for Initial pH / pH after 24 hours: saturated solution in water, pH determined at 24° C.; for solubility / solubility in water: 25° C.; for solubility: equilibrated one day, HPLC of the saturated solution, values marked * may be underestimated; for solubility in water: one day equilibration, HPLC
Procedure: 50 mg of R-ketamine saccharin salt was suspended in 0.5 mL of water, and the suspension was equilibrated (700 rpm) at 25° C. for one day. 10 to 15 mg of R-ketamine fumarate salt and R-ketamine oxalate salt were also equilibrated in 0.5 mL of water at 25° C. for one day.

[4] = Approximate solubility in 20% (w/w) aqueous (2-Hydroxypropyl)-Beta-cyclodextrin solution and in 20% (w/w) cyclodextrin in buffer pH 7, with pH of the solutions; conditions: for Approximate Solubility: ambient conditions, visual estimate
Procedure: These values were determined by adding small aliquots of solvent or solvent mixture to ˜10 mg of solid and shaking/sonicating for a short period of time at ambient conditions. The solubilities were estimated by visual observations. These values are only approximations. Table 20 summarized the obtained solubility values, and the pH of the resulting solutions.

[5] = Approximate solubility determination (small aliquots of solvent added to ~10 mg of solid, ambient conditions); format: physicochemical; conditions: thermodynamic from solid, approximation
Procedure: Approximate solubilities were determined for the R-ketamine free base. […] These values are only approximations.

[6] = water, at 23° C.
[7] = Storage in a closed vial at ambient conditions, reanalysis by PXRD; format: physicochemical
Procedure: Stoe Stadi P equipped with a Mythen1K Detector; Cu-Kα1 radiation; standard measurement conditions: transmission; 40 kV and 40 mA tube power; curved Ge monochromator; 0.02°2θ step size, 48 s step time, 1.5-50.5°2θ scanning range; detector mode: step scan; 1 °2θ detector step; standard sample preparation: 10 to 20 mg sample was placed between two acetate foils; sample holder: Stoe transmission sample holder; the sample was rotated during the measurement. All sample preparation and measurement was done in an ambient air atmosphere.

[8] = obtained solution in 20% (w/w) aqueous cyclodextrin, measured at 24° C.
[9] = obtained solution in 20% (w/w) cyclodextrin in buffer pH 7, measured at 24° C.
[10] = DVS, above 70% relative humidity

CN[C@@]1(c2ccccc2Cl)CCCCC1=O.CN[C@@]1(c2ccccc2Cl)CCCCC1=O.O=C(O)/C=C/C(=O)O [R-ketamine fumarate salt Form A]
solubility ([1]; pH 5.23, r.t.): 304 mg/mL
solubility ([1]; pH 6.14, r.t.): 15.1 mg/mL
solubility ([1]; pH 7.21, r.t.): 1.76 mg/mL
pH on dissolution in pure water ([1]; pure water, from approximate solubility tests): about 5.7
dependence of aqueous solubility on pH ([1]; water adjusted to pH 5, 6, 7, one day at 25° C.): solubility rapidly deceases by increasing pH
reversibility of water sorption ([2]; DVS): lost all its water when the humidity is scanned back to 0% r.h.
solid form of the sample after DVS [2]: no change in the crystalline form was observed
Initial pH ([3]; after 3 h): 4.1 (after 3 h)
pH after 24 hours [3]: 4.1
solubility ([3]; water): 17.7* mg/mL
solubility in water ([3]; water): higher than the solubility of the R-ketamine saccharin salt

CN[C@@]1(c2ccccc2Cl)CCCCC1=O.O=C1NS(=O)(=O)c2ccccc21 [R-ketamine saccharin salt]
hygroscopicity class ([2]; DVS): non-hygroscopic (non-hygroscopic (mass increase <0.2%))
solid form of the sample after DVS [2]: no change in the solid form was observed
Initial pH ([3]; after 1 h): 4.2 (after 1 h)
pH after 24 hours [3]: 4.0
solubility ([3]; water): 6.64 mg/mL
solubility in water ([3]; water): 6.6 mg/mL
Approximate Solubility ([4]; 20% (w/w) aqueous cyclodextrin): 28~37 mg/mL
Approximate Solubility ([4]; 20% (w/w) cyclodextrin in buffer pH 7 solution): 26~35 mg/mL
pH [4, 8]: 5
pH [4, 9]: 6.3

CN[C@@]1(c2ccccc2Cl)CCCCC1=O [R-ketamine free base, (2R)-2-(2-chlorophenyl)-2-(methylamino)cyclohexan-1-one]
solubility ([5]; aqueous with cosolvent or surfactant or cyclodextrin, 20% (2-hydroxypropyl)-beta-cyclodextrin in water): 1.4 to 1.7 mg/mL (≈ 5.89 to 7.15 mM)
solubility ([5]; organic solvent or mixture, 1-propanol): 60 to 79 mg/mL (≈ 252 to 332 mM)
solubility ([5]; organic solvent or mixture, 2-propanol): 37 to 44 mg/mL (≈ 156 to 185 mM)
solubility ([5]; organic solvent or mixture, Acetone): 111 to 222 mg/mL (≈ 467 to 934 mM)
solubility ([5]; organic solvent or mixture, Acetonitrile): 89 to 133 mg/mL (≈ 374 to 559 mM)
solubility ([5]; organic solvent or mixture, Ethanol): 62 to 83 mg/mL (≈ 261 to 349 mM)
solubility ([5]; organic solvent or mixture, Ethyl acetate): 115 to 230 mg/mL (≈ 484 to 967 mM)
solubility ([5]; organic solvent or mixture, Heptane): 5 to 9 mg/mL (≈ 21 to 37.9 mM)
solubility ([5]; organic solvent or mixture, Methanol): 120 to 240 mg/mL (≈ 505 to 1010 mM)
solubility ([5]; organic solvent or mixture, THF): > 288 mg/mL
solubility ([5]; Water): < 1 mg/mL
solubility ([4]; 20% (w/w) (2-hydroxypropyl)-beta-cyclodextrin in buffer pH 7, pH 7, aqueous with cosolvent or surfactant or cyclodextrin, thermodynamic from solid): 2 to 2.5 mg/mL (≈ 8.41 to 10.5 mM)
solubility ([4]; aqueous with cosolvent or surfactant or cyclodextrin, thermodynamic from solid): 1.5 to 1.7 mg/mL (≈ 6.31 to 7.15 mM)
pH [4, 8]: 8.5
pH [4, 9]: 7.1

CN[C@@]1(c2ccccc2Cl)CCCCC1=O.O=C(O)C(O)C(O)C(=O)O [R-ketamine D-tartrate salt Form D]
additional water absorbed ([2]; DVS, at high relative humidity): About 0.4%

CNC1(c2ccccc2Cl)CCCCC1=O.Cl (centres unmarked) [R-ketamine hydrochloride salt, reference compound]
solubility ([4]; aqueous 20% (2-hydroxypropyl)-beta-cyclodextrin solution): *The solubility of the HCl R-ketamine salt was over 100 mg/mL in aqueous 20% (2-hydroxypropyl)-beta-cyclodextrin solution.

CN[C@@]1(c2ccccc2Cl)CCCCC1=O.O=C(O)C(O)C(O)C(=O)O [R-ketamine D-tartrate salt Form C]
water content reached [2, 10]: about 8.3%
reversibility of water sorption ([2]; DVS): irreversible
pH of the suspension ([6]; after 24 hours of stirring): 3.42
pH of the suspension ([6]; after one hour): 3.48

CN[C@@]1(c2ccccc2Cl)CCCCC1=O.O=C(O)C(O)C(O)C(=O)O [R-ketamine D-tartrate salt Form A]
additional water uptake [2, 10]: about 3%
reversibility of water sorption ([2]; DVS): irreversible
solid form after storage (PXRD) ([7]; 13 months, ambient conditions): corresponding to R-ketamine D-tartrate salt Form A

CN[C@@]1(c2ccccc2Cl)CCCCC1=O.O=C(O)C(=O)O [R-ketamine oxalate salt]
hygroscopicity class ([2]; DVS): very hygroscopic (very hygroscopic (mass increase of ≥15%))
solid form of the sample after DVS [2]: dramatically loss of crystallinity was observed
Initial pH ([3]; after 3 h): 5.6 (after 3 h)
pH after 24 hours [3]: 5.7
solubility ([3]; water): 19.2* mg/mL
solubility in water ([3]; water): higher than the solubility of the R-ketamine saccharin salt
pH of the saturated solution ([3]; water, after one day stirring, pH measured at 24° C.): 5.7

CN[C@@]1(c2ccccc2Cl)CCCCC1=O.O=C(O)C(O)C(O)C(=O)O [R-ketamine D-tartrate salt Form B]
water content reached [2, 10]: about 8.5%
reversibility of water sorption ([2]; DVS): irreversible
solid form after storage (PXRD) ([7]; 12 months, ambient conditions): corresponding to R-ketamine D-tartrate salt Form B

CN[C@@]1(c2ccccc2Cl)CCCCC1=O.O=C(O)/C=C/C(=O)O [R-ketamine fumarate salt Form B]
solid form after storage (PXRD) ([7]; 11 months, ambient condition): a mixture of the R-ketamine fumarate salt Form A and B (about 1:1)
